The source of these data is paper PMC6009905, “Kushenol A and 8-prenylkaempferol, tyrosinase inhibitors, derived from Sophora flavescens” (Journal of Enzyme Inhibition and Medicinal Chemistry, 2018).

Values joined by “and” are separate entries in the source; they are usually repeats but may differ in a detail not shown here. Identical values can stand only once. Where only a bound is given, the exact number is not on record here.

In assay [1] the target is tyrosinase. Further details: method as in PMID 12951485, PMID 18175961. Conditions: read-out: IC50 on tyrosinase (previous report); cited from earlier work.
The nature of assay [2]: ABTS radical assay. The note with it: triplicate; for IC50: log-dose inhibition curve, read-out: Scavenging activity of compounds on ABTS radical, SC50. How it is done: The ABTS radical cation assay was modified the method of Re et al.[15] Briefly, the mixture of 7.4 mM ABTS solution with 2.6 mM potassium persulfate incubated at room temperature in dark for 24 h. […] Fifty microliter of the inhibitor was reacted with 950 μL of the ABTS solution. Absorbance value was monitored during 10 min at 732 nm using a spectrophotometer. The free radical value (SC50) was calculated by the log-dose inhibition curve. Scavenging activity (%)=[1–(extract absorbance/control absorbance)]×100.

For assay [3], the target named is T1, tyrosinase (Agaricus bisporus, UniProt C7FF04). As to the kind of experiment: Tyrosinase assay (conversion of L-tyrosine to L-DOPA, UV-Vis 475 nm). Type of assay: biochemical. The arrangement: purchased Sigma-Aldrich T3824. The note with it: L-tyrosine substrate, triplicate; for inhibition at 100 µM: 100 μM inhibitor, read-out: Inhibitory activity of compounds on tyrosinase, 100 μM (%); for IC50: read-out: Inhibitory activity of compounds on tyrosinase, IC50. On the procedure: (§1) Enzyme assay was performed according to the modified methods in the previous papers. For the calculation of inhibitory activity, 130 μL of tyrosinase (about 46 units/mL) solvated in 0.1 mM phosphate buffer (pH: 6.8) and 20 μL of 1–0.0078 mM concentrations of the inhibitors were mixed in a 96-well plate, and then 50 μL of 2 mM L-tyrosine in buffer was added in mixture. To test the enzyme kinetic study, 130 μL of tyrosinase and 20 μL of inhibitor were also mixed, and then 50 μL of 0.62–10 mM L-tyrosine was added in a 96-well plate.
Target sequence in this assay (C7FF04 1-392 limits assumed): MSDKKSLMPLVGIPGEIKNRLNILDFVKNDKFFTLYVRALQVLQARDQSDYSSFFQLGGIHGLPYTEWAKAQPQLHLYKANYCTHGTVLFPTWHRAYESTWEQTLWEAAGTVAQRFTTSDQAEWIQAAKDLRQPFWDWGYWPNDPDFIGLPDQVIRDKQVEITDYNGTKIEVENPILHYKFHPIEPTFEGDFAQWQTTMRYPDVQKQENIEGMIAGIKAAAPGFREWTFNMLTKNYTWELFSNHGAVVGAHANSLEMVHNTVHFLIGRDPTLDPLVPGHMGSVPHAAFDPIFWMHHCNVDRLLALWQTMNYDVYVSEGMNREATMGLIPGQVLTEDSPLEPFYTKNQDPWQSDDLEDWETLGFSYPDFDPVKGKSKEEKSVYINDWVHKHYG

The target in assay [4] is T1, tyrosinase. As to the kind of experiment: Tyrosinase enzyme kinetics (Lineweaver-Burk plots, secondary re-plot). Conditions: 0.62-10 mM L-tyrosine. Type of assay: biochemical. On the procedure: as §1, with “plate. The mixture was recorded at UV-Vis 475 nm during 20 min. The inhibitory ratio was calculated according to the following equation: Inhibitory activity rate (%)=100–[(S20–S0/C20–C0]×100 where C20 and S20 are the intensity of control and inhibitor after 20 min, C0 and S0 are the intensity of control and inhibitor at 0 min.” for “plate.”
This study confirmed the inhibitory mechanism of compounds 1–4 towards tyrosinase using enzyme kinetics. Enzyme kinetics were performed based on academic methods that examine a variety of substrate concentrations. The results were represented by Lineweaver–Burk plots, which confirmed the inhibition to […]. […]
Target sequence in this assay (C7FF04 2-392): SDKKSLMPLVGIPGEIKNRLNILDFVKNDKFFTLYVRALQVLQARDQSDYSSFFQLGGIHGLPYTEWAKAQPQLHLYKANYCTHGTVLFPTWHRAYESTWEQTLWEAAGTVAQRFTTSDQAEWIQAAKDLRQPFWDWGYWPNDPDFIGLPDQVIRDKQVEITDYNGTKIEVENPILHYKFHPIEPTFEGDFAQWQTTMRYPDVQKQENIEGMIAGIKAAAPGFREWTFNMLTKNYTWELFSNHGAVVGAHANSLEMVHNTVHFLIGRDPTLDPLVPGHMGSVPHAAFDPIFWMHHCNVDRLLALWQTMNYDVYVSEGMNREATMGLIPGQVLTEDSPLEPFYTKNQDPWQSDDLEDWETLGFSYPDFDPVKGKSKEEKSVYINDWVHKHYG

Assay [5] concerns HepG2 cells. Briefly: Measurement of intracellular ROS in H2O2-treated HepG2 cells. Type of assay: cell-based, Human. The note with it: 10 μM inhibitor 1 h, then 2 mM H2O2 30 min; negative control 100.0%, positive control 701.5%. On the procedure:
Human hepatoma HepG2 cells were cultured in DMEM supplemented with 10% FBS, 100 units/mL of penicillin and 100 μg/mL of streptomycin. Cells were maintained incubation at 37 °C under a 5% CO2[16].
The concentration of intracellular ROS was measured using a carboxy-H2DCFDA probe, as previously described. HepG2 cells were seeded into six-well plates at a density of 1 × 10^5 cells/mL and incubated for 24 h. After treatment with 10 μM concentrations of inhibitors 1–5 for 1 h, H2O2 (2 mM) was added to plates for 30 min. Cells were then incubated with 10 μM carboxy-H2DCFDA for 20 min, then cells were washed and harvested. Cells were immediately examined using a flow cytometer (Cytomics FC500; Beckman, Miami, FL).
To examine their antioxidant activity in vitro, pure compounds 1–5 were added to HepG2 cells, followed by addition of 2 mM H2O2. As shown in Figure 5(A), the respective negative (H2O2: –; I: –) and positive (H2O2: +; I: –) controls generated reactive oxygen species (ROS) of 100.0% ± 9.1% and 701.5% ± 46.9%. […] The viability of HepG2 cells following treatment with all compounds 1–5 at 10 μM ranged from 100.1% ± 6.1% to 103.8% ± 5.1% (Figure S6). Compound 2 caused an […].

As to `C=C(C)[C@H](CC=C(C)C)Cc1c(O)cc(O)c2c1O[C@H](c1ccc(O)cc1O)CC2=O` [sophoraflavanone G], the IC50 in assay [1] was 6.6 µM.

In the case of `O=C1O[C@H]([C@@H](O)CO)C(O)=C1O` [Ascorbic acid, reference compound], in assay [2], the “Scavenging activity of compounds on ABTS radical, 25 μM (%)” value (from here on “Scavenging activity of compounds … (%)”) came to 44.9 ± 0.9% and the IC50 turned out to be 27.8 ± 0.5 µM.

In the case of `C=C(C)C(CCC(C)(C)O)Cc1c(O)cc(OC)c(C(=O)/C=C/c2ccc(O)cc2O)c1O` (stereo not shown) [kuraridinol], in assay [1], the IC50 was 0.8 µM.

As for `C=C(C)[C@H](CC=C(C)C)Cc1c(O)cc(OC)c2c1O[C@H](c1ccc(O)cc1O)CC2=O` [kurarinone], the IC50 in assay [1] was 6.2 µM.

In the case of `CC(C)=CCc1c(O)cc(O)c2c1O[C@H](c1ccc(O)cc1)CC2=O` [Compound 5, 8-prenylnaringenin], in assay [2], the “Scavenging activity of compounds … (%)” value was 91.5 ± 0.1% and the IC50 is 7 ± 0.2 µM. The inhibition at 100 µM in assay [3] is 27 ± 2.9%.

As for `COc1ccc(-c2coc3cc(O)ccc3c2=O)cc1` [Compound 4, formononetin], in assay [2], the “Scavenging activity of compounds … (%)” value is recorded as 53.3 ± 2.4% and the IC50 was 22.8 ± 1.1 µM. Also, in assay [4], the Binding mode result is reported as “non-competitive inhibitors”. Moreover, in assay [3], the inhibition at 100 µM was 91.9 ± 2% and the IC50 was determined as 19.9 ± 1.7 µM.

In the case of `C=C(C)[C@H](CC=C(C)C)Cc1c(O)cc(O)c2c1O[C@H](c1ccccc1O)CC2=O` [Compound 1, kushenol A], in assay [2], the “Scavenging activity of compounds … (%)” value is listed as 93.7 ± 0.3% and the IC50 was found to be 9.7 ± 0.1 µM. Moreover, the Binding mode result in assay [4] is “non-competitive inhibitors”. In addition, in assay [3], the inhibition at 100 µM was determined as 101 ± 3.3%; the IC50 was < 10 µM and 1.1 µM.

For the molecule `CC(C)=CCc1c(O)cc(O)c2c(=O)c(O)c(-c3ccc(O)cc3)oc12` [Compound 2, 8-prenylkaempferol], in assay [2], the “Scavenging activity of compounds … (%)” value came out at 93.2 ± 0.2% and the IC50 was determined as 7.9 ± 0.3 µM. In addition, the ROS generation in assay [5] was 435.3% ± 43.0%. Besides, the Binding mode result in assay [4] is given as “competitive inhibitor”. In assay [3], the inhibition at 100 µM stood at 90.4 ± 3%; the IC50 is < 10 µM and 2.4 µM.

For the molecule `C=C(C)[C@H](CC=C(C)C)Cc1c(O)cc(OC)c(C(=O)/C=C/c2ccc(O)cc2O)c1O` [kuraridin], the IC50 in assay [1] was 0.6 µM.

Take `C=C(C)C(CC=C(C)C)Cc1c(O)cc(O)c2c(=O)c(O)c(-c3ccc(O)cc3O)oc12` (stereo not shown) [Compound 3, kushenol C]: in assay [2], the “Scavenging activity of compounds … (%)” value was 94.1 ± 0.2% and the IC50 was determined as 4.9 ± 0.3 µM. The ROS generation in assay [5] is recorded as 391.7% ± 56.3%. The Binding mode entry in assay [4] is reported as “non-competitive inhibitors”. Besides, in assay [3], the inhibition at 100 µM stood at 81.1 ± 0.1% and the IC50 came out at 24.1 ± 2.3 µM.
